Reference: ChEMBL document CHEMBL4837249, “Discovery of Potent Antiallergic Agents Based on an o-Aminopyridinyl Alkynyl Scaffold” (J Med Chem, 2021)
Activity calls are given as the source filed them. The calls are words filed in the database; no cut-off is given here.

Legend:
[1] = biological target: Proto-oncogene tyrosine-protein kinase Src (Rattus norvegicus) (UniProt Q9WUD9); test: Inhibition of Src phosphorylation in rat RBL-2H3 cells assessed as inhibition of Fc epsilonRI-mediated signal transduction by Western blot analysis; format: cell-based; details: dose 8-200 nM
[2] = biological target: Tyrosine-protein kinase Blk (Homo sapiens, UniProt P51451); test: Inhibition of human full length recombinant BLK by radiometric scintillation counting analysis
[3] = biological target: RAC-alpha serine/threonine-protein kinase (Homo sapiens) (UniProt P31749); test: Inhibition of human recombinant PKBalpha at 5 nM radiometric scintillation counting analysis relative to control
[4] = Toxicity in anti-DNP IgE sensitized BALB/c mouse assessed as body weight loss at 40 mg/kg, po; format: organism-based; details: in vivo
[5] = test system: Mus musculus; test: Antiallergic activity against anti-DNP IgE sensitized passive systemic anaphylaxis-induced BALB/c mouse pulmonary allergic inflammation model assessed as by decrease in body temperature drop at 40 mg/kg, po measured every 5 mins for 60 mins; format: functional, organism-based
[6] = biological target: 1-phosphatidylinositol 4,5-bisphosphate phosphodiesterase gamma-1 (Rattus norvegicus) (UniProt P10686); test: Inhibition of PLCgamma1 phosphorylation in rat RBL-2H3 cells assessed as inhibition of Fc epsilonRI-mediated signal transduction by Western blot analysis; format: cell-based; details: dose 8-200 nM
[7] = Oral bioavailability in BALB/c mouse at 20 mg/kg measured up to 24 hrs by LC-MS/MS analysis; format: ADME, organism-based; details: in vivo
[8] = Toxicity in anti-DNP IgE sensitized BALB/c mouse assessed as hepatopathy at 40 mg/kg, po; format: organism-based; details: in vivo
[9] = Tmax in BALB/c mouse at 20 mg/kg, po measured up to 24 hrs by LC-MS/MS analysis; format: ADME, organism-based; details: in vivo
[10] = biological target: Tyrosine-protein kinase Yes (Homo sapiens, UniProt P07947); test: Inhibition of human full length recombinant Yes by radiometric scintillation counting analysis
[11] = AUC (0 to t) in BALB/c mouse at 20 mg/kg, po measured up to 24 hrs by LC-MS/MS analysis; format: ADME, organism-based; parameters: route oral, dose 20 mg/kg, time <=24; details: in vivo
[12] = biological target: Tyrosine-protein kinase SYK (Homo sapiens) (UniProt P43405); test: Inhibition of human full length recombinant Syk at 50 nM by radiometric scintillation counting analysis relative to control
[13] = Toxicity in anti-DNP IgE sensitized BALB/c mouse assessed as vomiting at 40 mg/kg, po; format: organism-based; details: in vivo
[14] = Clearance in BALB/c mouse at 2 mg/kg, iv measured up to 24 hrs by LC-MS/MS analysis; format: ADME, organism-based; details: in vivo
[15] = Toxicity in anti-DNP IgE sensitized BALB/c mouse assessed as piloerection at 40 mg/kg, po; format: organism-based; details: in vivo
[16] = Toxicity in anti-DNP IgE sensitized BALB/c mouse assessed as splenomegaly at 40 mg/kg, po; format: organism-based; details: in vivo
[17] = MRT in BALB/c mouse at 2 mg/kg, iv measured up to 24 hrs by LC-MS/MS analysis; format: ADME, organism-based; details: in vivo
[18] = test system: RBL-2H3; test: Antiallergic activity against anti-DNP-IgE sensitized rat RBL-2H3 cells assessed as […] of degranulation by measuring beta-hexosaminidase release using P-nitrophenyl-N-acetyl-D-glucosamide as substrate at 1 uM measured after 1 hr by microplate reader relative to control; format: functional
[19] = test system: RBL-2H3; test: Antiallergic activity against anti-DNP-IgE sensitized rat RBL-2H3 cells assessed as […] of degranulation by measuring beta-hexosaminidase release using P-nitrophenyl-N-acetyl-D-glucosamide as substrate at 0.04 uM measured after 1 hr by microplate reader relative to control; format: functional
[20] = biological target: T1, Tyrosine-protein kinase ITK/TSK (Homo sapiens) (UniProt Q08881); test: Inhibition of human recombinant ITK (352 to 617) at 50 nM by radiometric scintillation counting analysis relative to control
T1 sequence (whole entry): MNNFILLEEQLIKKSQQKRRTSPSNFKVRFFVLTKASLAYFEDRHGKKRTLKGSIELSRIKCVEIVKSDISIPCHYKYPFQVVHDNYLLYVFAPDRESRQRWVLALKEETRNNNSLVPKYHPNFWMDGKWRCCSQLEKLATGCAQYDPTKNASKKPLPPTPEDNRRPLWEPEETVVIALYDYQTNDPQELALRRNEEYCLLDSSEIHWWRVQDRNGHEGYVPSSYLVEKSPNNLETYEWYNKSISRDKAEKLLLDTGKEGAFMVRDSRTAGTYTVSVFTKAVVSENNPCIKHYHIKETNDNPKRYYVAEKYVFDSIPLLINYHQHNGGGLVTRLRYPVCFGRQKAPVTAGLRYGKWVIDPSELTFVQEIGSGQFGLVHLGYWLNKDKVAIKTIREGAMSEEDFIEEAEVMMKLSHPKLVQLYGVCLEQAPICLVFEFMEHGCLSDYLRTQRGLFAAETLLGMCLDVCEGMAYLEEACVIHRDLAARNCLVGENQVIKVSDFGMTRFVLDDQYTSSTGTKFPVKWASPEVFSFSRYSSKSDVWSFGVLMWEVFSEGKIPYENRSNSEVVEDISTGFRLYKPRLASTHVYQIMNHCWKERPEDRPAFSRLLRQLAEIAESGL

[21] = biological target: Tyrosine-protein kinase ABL1 (Homo sapiens, UniProt P00519); test: Inhibition of human recombinant ABL1 using ATP/Ulight-TK peptide incubated for 15 mins
[22] = biological target: Tyrosine-protein kinase CSK (Homo sapiens, UniProt P41240); test: Inhibition of human full length recombinant CSK by radiometric scintillation counting analysis
[23] = Toxicity in anti-DNP IgE sensitized BALB/c mouse assessed as diarrhea at 40 mg/kg, po; format: organism-based; details: in vivo
[24] = Toxicity in anti-DNP IgE sensitized BALB/c mouse assessed as ascites at 40 mg/kg, po; format: organism-based; details: in vivo
[25] = Half life in BALB/c mouse at 20 mg/kg, po measured up to 24 hrs by LC-MS/MS analysis; format: ADME, organism-based; details: in vivo
[26] = Half life in BALB/c mouse at 2 mg/kg, iv measured up to 24 hrs by LC-MS/MS analysis; format: ADME, organism-based; details: in vivo
[27] = test system: RBL-2H3; test: Inhibition of p38 MAPK phosphorylation in rat RBL-2H3 cells assessed as inhibition of Fc epsilonRI-mediated signal transduction by Western blot analysis; format: cell-based; details: dose 8-200 nM
[28] = test system: RBL-2H3; test: Inhibition of Akt phosphorylation in rat RBL-2H3 cells assessed as inhibition of Fc epsilonRI-mediated signal transduction by Western blot analysis; format: cell-based; details: dose 8-200 nM
[29] = biological target: Tyrosine-protein kinase HCK (Homo sapiens, UniProt P08631); test: Inhibition of human recombinant HCK (230 to 497) by radiometric scintillation counting analysis
[30] = Toxicity in anti-DNP IgE sensitized BALB/c mouse assessed as death at 40 mg/kg, po; format: organism-based; details: in vivo
[31] = biological target: Tyrosine-protein kinase JAK1 (Homo sapiens) (UniProt P23458); test: Inhibition of human recombinant JAK1 at 5 nM radiometric scintillation counting analysis relative to control
[32] = biological target: Tyrosine-protein kinase SYK (Homo sapiens) (UniProt P43405); test: Inhibition of human full length recombinant Syk at 5 nM by radiometric scintillation counting analysis relative to control

Chain of Tyrosine-protein kinase Blk (P51451 whole entry): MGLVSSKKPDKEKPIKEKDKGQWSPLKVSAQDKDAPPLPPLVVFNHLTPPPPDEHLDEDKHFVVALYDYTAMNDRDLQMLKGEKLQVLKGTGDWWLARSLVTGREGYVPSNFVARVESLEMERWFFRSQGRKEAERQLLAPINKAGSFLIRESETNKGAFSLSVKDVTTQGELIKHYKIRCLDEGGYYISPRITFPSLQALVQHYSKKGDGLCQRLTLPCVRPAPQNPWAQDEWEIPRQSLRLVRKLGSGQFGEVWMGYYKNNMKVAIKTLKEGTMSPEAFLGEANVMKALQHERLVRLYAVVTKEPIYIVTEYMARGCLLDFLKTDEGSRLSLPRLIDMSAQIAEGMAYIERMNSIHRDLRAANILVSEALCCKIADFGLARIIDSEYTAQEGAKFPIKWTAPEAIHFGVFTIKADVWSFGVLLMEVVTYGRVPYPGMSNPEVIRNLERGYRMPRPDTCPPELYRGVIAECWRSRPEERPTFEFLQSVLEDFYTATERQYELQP
Chain of Tyrosine-protein kinase Yes (P07947 whole entry): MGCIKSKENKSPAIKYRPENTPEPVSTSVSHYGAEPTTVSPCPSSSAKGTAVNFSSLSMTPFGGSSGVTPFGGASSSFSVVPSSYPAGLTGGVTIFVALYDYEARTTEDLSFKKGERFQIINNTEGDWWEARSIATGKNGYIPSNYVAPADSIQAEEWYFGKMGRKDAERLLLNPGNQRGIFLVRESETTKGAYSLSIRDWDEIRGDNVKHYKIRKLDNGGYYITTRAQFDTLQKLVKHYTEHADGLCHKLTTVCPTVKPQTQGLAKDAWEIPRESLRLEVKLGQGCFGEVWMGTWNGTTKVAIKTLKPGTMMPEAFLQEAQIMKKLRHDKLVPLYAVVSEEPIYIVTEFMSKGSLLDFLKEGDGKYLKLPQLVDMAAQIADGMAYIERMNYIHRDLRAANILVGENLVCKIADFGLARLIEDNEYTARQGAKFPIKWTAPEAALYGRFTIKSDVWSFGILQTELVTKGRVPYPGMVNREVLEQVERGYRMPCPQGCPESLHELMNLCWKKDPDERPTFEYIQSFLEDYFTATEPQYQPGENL
Chain of Tyrosine-protein kinase HCK (P08631 whole entry): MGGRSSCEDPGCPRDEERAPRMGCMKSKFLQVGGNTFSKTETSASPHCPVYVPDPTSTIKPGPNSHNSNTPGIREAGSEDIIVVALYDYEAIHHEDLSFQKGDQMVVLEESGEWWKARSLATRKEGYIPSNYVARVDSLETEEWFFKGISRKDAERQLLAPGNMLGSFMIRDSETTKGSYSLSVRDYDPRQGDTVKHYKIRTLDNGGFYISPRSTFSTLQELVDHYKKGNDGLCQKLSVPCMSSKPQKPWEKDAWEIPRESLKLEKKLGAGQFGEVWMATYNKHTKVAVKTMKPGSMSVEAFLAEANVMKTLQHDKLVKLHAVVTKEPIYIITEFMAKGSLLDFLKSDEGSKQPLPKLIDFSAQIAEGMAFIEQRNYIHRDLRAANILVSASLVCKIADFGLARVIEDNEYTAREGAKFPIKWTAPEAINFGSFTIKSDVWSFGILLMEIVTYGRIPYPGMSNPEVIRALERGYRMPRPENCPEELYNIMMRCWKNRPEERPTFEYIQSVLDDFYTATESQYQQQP
Chain of Tyrosine-protein kinase CSK (P41240 whole entry): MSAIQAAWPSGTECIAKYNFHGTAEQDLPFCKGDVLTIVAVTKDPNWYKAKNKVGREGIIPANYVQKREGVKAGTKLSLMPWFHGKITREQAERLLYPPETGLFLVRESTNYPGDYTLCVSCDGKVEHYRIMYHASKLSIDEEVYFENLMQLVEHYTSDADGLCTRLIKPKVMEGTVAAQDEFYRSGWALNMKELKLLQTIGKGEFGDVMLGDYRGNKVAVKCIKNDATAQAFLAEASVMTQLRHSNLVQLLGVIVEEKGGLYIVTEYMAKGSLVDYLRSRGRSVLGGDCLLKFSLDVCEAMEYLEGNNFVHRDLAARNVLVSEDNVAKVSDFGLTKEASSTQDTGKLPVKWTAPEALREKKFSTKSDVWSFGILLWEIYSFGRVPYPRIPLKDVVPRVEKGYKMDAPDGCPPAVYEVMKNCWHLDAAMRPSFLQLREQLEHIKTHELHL
Chain of Tyrosine-protein kinase ABL1 (P00519 whole entry): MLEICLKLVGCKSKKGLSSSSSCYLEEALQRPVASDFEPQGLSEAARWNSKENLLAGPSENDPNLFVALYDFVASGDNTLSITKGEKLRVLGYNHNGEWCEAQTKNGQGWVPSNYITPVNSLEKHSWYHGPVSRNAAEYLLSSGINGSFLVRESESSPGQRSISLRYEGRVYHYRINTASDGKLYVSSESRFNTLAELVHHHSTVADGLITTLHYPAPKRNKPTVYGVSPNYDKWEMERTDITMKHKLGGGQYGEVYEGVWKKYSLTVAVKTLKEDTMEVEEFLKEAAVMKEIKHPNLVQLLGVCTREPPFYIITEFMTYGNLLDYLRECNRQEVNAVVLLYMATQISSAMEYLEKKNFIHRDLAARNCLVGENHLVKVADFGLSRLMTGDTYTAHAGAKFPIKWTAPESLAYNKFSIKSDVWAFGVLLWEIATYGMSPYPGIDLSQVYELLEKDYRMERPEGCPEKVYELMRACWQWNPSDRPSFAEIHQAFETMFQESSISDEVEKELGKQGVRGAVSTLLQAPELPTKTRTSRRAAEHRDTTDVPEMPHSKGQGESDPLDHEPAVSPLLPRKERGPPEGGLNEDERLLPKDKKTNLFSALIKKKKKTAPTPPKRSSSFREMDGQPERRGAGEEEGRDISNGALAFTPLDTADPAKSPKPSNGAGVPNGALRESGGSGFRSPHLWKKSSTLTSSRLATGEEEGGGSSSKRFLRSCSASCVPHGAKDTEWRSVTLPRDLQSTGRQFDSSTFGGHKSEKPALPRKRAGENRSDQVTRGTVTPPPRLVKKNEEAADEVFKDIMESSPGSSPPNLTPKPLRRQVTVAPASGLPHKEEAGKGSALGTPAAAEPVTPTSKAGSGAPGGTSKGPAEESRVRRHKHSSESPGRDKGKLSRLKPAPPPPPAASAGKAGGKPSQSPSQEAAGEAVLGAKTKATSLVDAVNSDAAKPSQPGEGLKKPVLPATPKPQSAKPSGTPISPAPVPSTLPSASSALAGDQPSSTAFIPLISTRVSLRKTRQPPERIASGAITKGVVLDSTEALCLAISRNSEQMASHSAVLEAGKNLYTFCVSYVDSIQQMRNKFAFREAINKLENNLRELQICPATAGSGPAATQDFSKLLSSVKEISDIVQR
Chain of RAC-alpha serine/threonine-protein kinase (Homo sapiens) (P31749 whole entry): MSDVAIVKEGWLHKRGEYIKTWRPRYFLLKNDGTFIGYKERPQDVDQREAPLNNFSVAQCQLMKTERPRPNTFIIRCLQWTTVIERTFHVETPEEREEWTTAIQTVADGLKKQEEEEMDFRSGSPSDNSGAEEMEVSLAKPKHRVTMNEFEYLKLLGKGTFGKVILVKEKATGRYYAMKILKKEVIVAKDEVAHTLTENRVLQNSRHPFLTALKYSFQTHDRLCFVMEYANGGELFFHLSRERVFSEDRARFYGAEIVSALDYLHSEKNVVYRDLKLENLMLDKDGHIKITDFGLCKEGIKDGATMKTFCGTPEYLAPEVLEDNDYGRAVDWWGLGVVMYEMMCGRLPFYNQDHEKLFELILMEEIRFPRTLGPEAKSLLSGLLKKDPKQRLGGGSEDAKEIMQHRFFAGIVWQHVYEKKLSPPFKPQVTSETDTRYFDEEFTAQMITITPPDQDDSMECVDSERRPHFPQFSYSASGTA
Chain of Proto-oncogene tyrosine-protein kinase Src (Rattus norvegicus) (Q9WUD9 2-536 limits assumed): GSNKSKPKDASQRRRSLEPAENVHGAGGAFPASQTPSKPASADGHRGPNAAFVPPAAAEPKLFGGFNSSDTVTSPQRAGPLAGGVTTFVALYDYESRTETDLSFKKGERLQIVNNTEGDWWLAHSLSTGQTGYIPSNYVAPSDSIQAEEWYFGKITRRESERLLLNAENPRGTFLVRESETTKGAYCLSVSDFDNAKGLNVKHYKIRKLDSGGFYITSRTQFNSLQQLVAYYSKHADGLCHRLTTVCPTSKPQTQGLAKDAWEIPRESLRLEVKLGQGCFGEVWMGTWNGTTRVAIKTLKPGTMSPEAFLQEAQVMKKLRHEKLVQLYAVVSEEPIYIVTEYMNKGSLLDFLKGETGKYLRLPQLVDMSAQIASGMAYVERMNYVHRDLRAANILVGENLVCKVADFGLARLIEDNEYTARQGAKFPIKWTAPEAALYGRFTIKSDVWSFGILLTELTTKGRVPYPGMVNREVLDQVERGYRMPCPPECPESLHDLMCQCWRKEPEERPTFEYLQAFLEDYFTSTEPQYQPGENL

For `Cc1ccc(C(=O)Nc2cc(C(F)(F)F)cc(C(F)(F)F)c2)cc1C#Cc1cc(-c2cnn(C)c2)cnc1N`, which inhibition [1] is on record?
The inhibition was “Dose-Dependent Effect”.

What about the IC50 [2] of the same molecule?
The IC50 was 56 nM.

And the inhibition [3]?
The inhibition was -5%.

What about the Activity [4] of the same molecule?
The Activity was “Non-Toxic”.

What about the Activity [5] of the same molecule?
Its Activity is “Active”.

What about the inhibition [6] of the same molecule?
Its inhibition is “Dose-Dependent Effect”.

What about the bioavailability [7] of the same molecule?
Its bioavailability is 99.9%.

What about the Activity [8] of the same molecule?
Its Activity is “Non-Toxic”.

What about the Tmax [9] of the same molecule?
The Tmax was 2.67 h.

What about the IC50 [10] of the same molecule?
Its IC50 is 95 nM.

And the AUC(0-t) at 24 h [11]?
The AUC(0-t) at 24 h was 21300 ng·h/mL.

And the inhibition [12]?
Its inhibition is -1%.

What about the Activity [13] of the same molecule?
Its Activity is “Non-Toxic”.

And the clearance [14]?
Its clearance is 15.2 mL/min/kg.

And the Activity [15]?
The Activity was “Non-Toxic”.

And the Activity [16]?
Its Activity is “Non-Toxic”.

What about the MRT [17] of the same molecule?
Its MRT is 4.4 h.

What about the inhibition at 1 µM [18] of the same molecule?
The inhibition at 1 µM was 144%.

And the inhibition at 0.04 µM [19]?
The inhibition at 0.04 µM was 112%.

And the inhibition [20]?
The inhibition was -1%.

And the IC50 [21]?
The IC50 was 22 nM.

And the IC50 [22]?
Its IC50 is 187 nM.

And the Activity [23]?
Its Activity is “Non-Toxic”.

And the Activity [24]?
Its Activity is “Non-Toxic”.

What about the half-life [25] of the same molecule?
Its half-life is 6.9 h.

What about the half-life [26] of the same molecule?
The half-life was 5.57 h.

What about the inhibition [27] of the same molecule?
Its inhibition is “Dose-Dependent Effect”.

What about the inhibition [28] of the same molecule?
Its inhibition is “Dose-Dependent Effect”.

What about the IC50 [29] of the same molecule?
Its IC50 is 9 nM.

And the Activity [30]?
Its Activity is “Non-Toxic”.

Which inhibition at 1 µM [18] does the source give for `Cc1ccc(C(=O)Nc2ccc(OC(F)(F)F)cc2)cc1C#Cc1cc(-c2cnn(C)c2)cnc1N` here?
Its inhibition at 1 µM is 144%.

Which IC50 [2] does the source give for `Cc1ccc(C(=O)Nc2ccc(Cl)cc2Cl)cc1C#Cc1cc(-c2cnn(C)c2)cnc1N` here?
The IC50 was greater than 1000 nM.

And the inhibition [3]?
Its inhibition is 4%.

What about the IC50 [10] of the same molecule?
Its IC50 is greater than 1000 nM.

What about the inhibition [12] of the same molecule?
Its inhibition is -3%.

What about the inhibition [31] of the same molecule?
The inhibition was 14%.

And the inhibition [20]?
The inhibition was 3%.

And the IC50 [21]?
Its IC50 is 7 nM.

What about the IC50 [22] of the same molecule?
The IC50 was greater than 1000 nM.

And the inhibition [32]?
The inhibition was -2%.

And the IC50 [29]?
Its IC50 is 57 nM.
